Here are results for 22 compounds from patent US10344019B2 (priority 2010, dated 2019).

Assay in all cases: microbe, parasite or virus in culture
Holding throughout (assay type): cell-based

Assay [1] concerns HCV 1a RLuc cells (dicistronic genotype 1a H77 replicon, RLuc reporter). The conditions noted are these: Hepatitis C virus, genotype 1a H77 replicon, read-out: 1a. As to the method:
(§1) Evaluation of cell-based anti-HCV activity: Antiviral potency (EC50) was determined using a Renilla luciferase (RLuc)-based HCV replicon reporter assay. To perform the assay for genotype 1 and 2a JFH-1, HCV 1b RLuc cells (harboring a dicistronic genotype 1b Con1 replicon that encodes a RLuc reporter), or HCV 1a RLuc cells (harboring a dicistronic genotype 1a H77 replicon that encodes a RLuc reporter), or HCV 2a JFH-1 Rluc cells (harboring a dicistronic genotype 2a JFH-1 replicon that encodes a RLuc reporter) were dispensed into 384-well plates. To perform the assay for genotype 2a (with M31 present) or 2b, HCV 2a Rluc or 2b Rluc cells (both with M31 present) harboring a dicistronic NS5A chimeric genotype 2a JFH-1 replicon that encodes a RLuc reporter and either genotype 2a J6 strain NS5A gene or genotype 2b MD2b-1 NS5A gene (based on Los Alamos HCV database isolates, both with M31 present) respectively, were dispensed into 384-well plates. To perform the assay for genotype 3 and 4, HCV 3a RLuc or 4a Rluc cells harboring a dicistronic NS5A chimeric genotype 1b Con1 replicon that encodes a RLuc reporter and either a consensus genotype 3a NS5A gene or genotype 4a NS5A gene (based on Los Alamos HCV database isolates) respectively, were dispensed into 384-well plates. Compounds were re-suspended in DMSO at a concentration of 10 mM and serially diluted in DMSO either manually or using an automated pipeting instrument. Serially diluted compounds were mixed with cell culture media and added to the seeded cells. […] 72 hours later, cells were lysed and Renilla luciferase activity quantified as recommended by the manufacturer (Promega-Madison, Wis.). Non-linear regression was performed to calculate EC50 values.
A general note: Replicon systems follow genome replication, usually without infectious particles.

Assay [2] has as its system HCV 1b RLuc cells (dicistronic genotype 1b Con1 replicon, RLuc reporter). The note with it: Hepatitis C virus, read-out: 1b (nM). As to the method: as §1
The test system of assay [3] is HCV 2a JFH-1 Rluc cells (dicistronic genotype 2a JFH-1 replicon, RLuc reporter). The note with it: Hepatitis C virus, genotype 2a JFH-1 replicon, read-out: 2a JFH. On the procedure:
as §1

Assay [4] deals with HCV 3a RLuc cells (NS5A chimeric genotype 1b Con1 replicon with consensus genotype 3a NS5A gene). The note with it: Hepatitis C virus. On the procedure: as §1
Where [5] appears, read: read-out: 3a, genotype 3a NS5A chimeric 1b Con1 replicon.

Read-outs that look alike come from different tables or passages of the source.

Regarding `COC(=O)N[C@H](C(=O)N1C[C@H](C)C[C@H]1c1ncc(-c2ccc3cc(-c4ccc(-c5cnc([C@@H]6CCCN6C(=O)[C@H](NC(=O)OC)c6ccccc6OC)[nH]5)cc4)ccc3c2)[nH]1)C(C)C` [Example 147], the EC50 is 0.001 to 0.999 nM in assay [1] (RLuc reporter), 0.012 nM in assay [2], 0.001 to 0.999 nM in assay [3] (RLuc reporter) and 0.001 to 0.99 nM in assay [4] (setting [5]).
As to `COC(=O)N[C@H](C(=O)N1CCC[C@H]1c1ncc(-c2ccc3cc(-c4ccc(-c5cnc([C@@H]6SCCN6C(=O)[C@H](NC(=O)OC)c6ccccc6)[nH]5)cc4)ccc3c2)[nH]1)C(C)C` [Example 117], the EC50 was 0.001 to 0.999 nM in assay [1] (RLuc reporter), 0.007 nM in assay [2], 0.001 to 0.999 nM in assay [3] (RLuc reporter) and 0.001 to 0.99 nM in assay [4] (setting [5]).
For the compound `COC(=O)N[C@H](C(=O)N1CCC[C@H]1c1ncc(-c2ccc3cc(-c4ccc(-c5cnc([C@@H]6CCCN6C(=O)[C@H](NC(=O)OC)c6ccccc6)[nH]5)cc4)ccc3c2)[nH]1)C(C)C` [Example 29], the EC50 in assay [1] (72 h, Table 2, 72 hours) was 0.001 to 0.999 nM; in assay [2] (72 h), 0.014 nM; in assay [3] (72 h, Table 2, 72 hours), 0.001 to 0.999 nM; in assay [4] (read-out: 3a, Table 2, genotype 3a NS5A chimeric replicon), 0.001 to 0.99 nM.
Regarding `COC(=O)NC(C(=O)N1CCC[C@H]1c1ncc(-c2ccc(-c3ccc4cc(-c5cnc([C@@H]6CCCN6C(=O)[C@@H](NC(=O)OC)C(C)C)[nH]5)ccc4c3)cc2)[nH]1)c1cccc(C(F)(F)F)c1` (stereo partly shown) [Example 146], the EC50 in assay [1] (RLuc reporter) was 1 to 44 nM; in assay [2], 0.048 nM; in assay [3] (RLuc reporter), 1 to 44 nM; in assay [4] (setting [5]), > 5 nM.
For `COC(=O)N[C@H](C(=O)C1CCSC1c1ncc(-c2ccc(-c3ccc4cc(-c5cnc([C@@H]6CCCN6C(=O)[C@H](NC(=O)OC)c6ccccc6)[nH]5)ccc4c3)cc2)[nH]1)C(C)C` (stereo partly shown) [Example 131], the EC50 in assay [1] (RLuc reporter) is 0.001 to 0.999 nM; in assay [2] it was 0.009 nM; in assay [3] (RLuc reporter), 0.001 to 0.999 nM; in assay [4] (setting [5]), 0.001 to 0.99 nM.
Take `COC(=O)N[C@H](C(=O)N1CCC[C@H]1c1ncc(-c2ccc3cc(-c4ccc(-c5cnc([C@@H]6CCCN6C(=O)[C@@](C)(NC(=O)OC)c6ccccc6)[nH]5)cc4)ccc3c2)[nH]1)C(C)C` [Example 163]: the EC50 is 1 to 44 nM in assay [1] (RLuc reporter), 0.031 nM in assay [2], 1 to 44 nM in assay [3] (RLuc reporter) and > 5 nM in assay [4] (setting [5]).
`COC(=O)N[C@@H](C)C(=O)N1CCC[C@H]1c1ncc(-c2ccc3cc(-c4ccc(-c5cnc([C@@H]6CCCN6C(=O)[C@H](NC(=O)OC)c6ccccc6)[nH]5)cc4)ccc3c2)[nH]1` [Example 164]: the EC50 in assay [1] (RLuc reporter) was 0.001 to 0.999 nM; in assay [2], 0.01 nM; in assay [3] (RLuc reporter) it was 0.001 to 0.999 nM; in assay [4] (setting [5]), 0.001 to 0.99 nM.
Regarding `COC(=O)N[C@H](C(=O)N1CCC[C@H]1c1ncc(-c2ccc3cc(-c4ccc(-c5cnc([C@@H]6CCCN6C(=O)[C@H](NC(=O)CC6CCOCC6)c6ccccc6)[nH]5)cc4)ccc3c2)[nH]1)C(C)C` [Example 212], the EC50 was 0.001 to 0.999 nM in assay [1] (RLuc reporter), 0.018 nM in assay [2], 0.001 to 0.999 nM in assay [3] (RLuc reporter) and 0.001 to 0.99 nM in assay [4] (setting [5]).
`COC(=O)N[C@H](C(=O)N1CCC[C@H]1c1nc(-c2ccc3cc(-c4ccc(-c5c[nH]c([C@@H]6CCCN6C(=O)[C@@H](c6ccccc6)N(C6CC6)C6CC6)n5)cc4)ccc3c2)c[nH]1)C(C)C` [Example 179]: the EC50 was 1 to 44 nM in assay [1] (RLuc reporter), 0.041 nM in assay [2], 1 to 44 nM in assay [3] (RLuc reporter) and > 5 nM in assay [4] (setting [5]).
Consider `COC(=O)N[C@H](C(=O)N1CCC[C@H]1c1ncc(-c2ccc3cc(-c4ccc(-c5cnc([C@@H]6CCCN6C(=O)[C@](C)(NC(=O)OC)c6ccccc6)[nH]5)cc4)ccc3c2)[nH]1)C(C)C` [Example 162], for which the EC50 was 1 to 44 nM in assay [1] (RLuc reporter), 0.01 nM in assay [2], 1 to 44 nM in assay [3] (RLuc reporter) and 1 to 4.99 nM in assay [4] (setting [5]).
On to `COC(=O)N[C@H](C(=O)N1CCC[C@H]1c1ncc(-c2ccc3cc(-c4ccc5c(c4)CCc4nc([C@@H]6CCCN6C(=O)[C@H](NC(=O)OC)c6ccccc6)[nH]c4-5)ccc3c2)[nH]1)C1CCOCC1` [Example 170], for which the EC50 was 0.001 to 0.999 nM in assay [1] (RLuc reporter), 0.032 nM in assay [2], 0.001 to 0.999 nM in assay [3] (RLuc reporter) and 0.001 to 0.99 nM in assay [4] (setting [5]).
`COC(=O)NC(C(=O)N1CCC[C@H]1c1ncc(-c2ccc(-c3ccc4cc(-c5cnc([C@@H]6CCCN6C(=O)[C@@H](NC(=O)OC)C(C)C)[nH]5)ccc4c3)cc2)[nH]1)c1ccccn1` (stereo partly shown) [Example 183]: the EC50 in assay [1] (RLuc reporter) was 0.001 to 0.999 nM; in assay [2], 0.013 nM; in assay [3] (RLuc reporter), 0.001 to 0.999 nM; in assay [4] (setting [5]), 1 to 4.99 nM.
On to `COC(=O)N[C@H](C(=O)N1CCC[C@H]1c1nc(-c2ccc(-c3ccc4cc(C5=CNC([C@@H]6CCCN6C(=O)[C@H](NC(=O)OC)c6ccccc6)N5)ccc4c3)cc2)c[nH]1)C1CCOCC1` (stereo partly shown) [Example 178], for which the EC50 in assay [1] (RLuc reporter) is 0.001 to 0.999 nM; in assay [2] it was 0.024 nM; in assay [3] (RLuc reporter), 0.001 to 0.999 nM; in assay [4] (setting [5]) it was 0.001 to 0.99 nM.
Take `COC(=O)N[C@H](C(=O)N1CCC[C@H]1c1ncc(-c2ccc3cc(-c4ccc(-c5cnc([C@@H]6CCCN6C(=O)[C@H](NC(=O)OC)c6cccc(PC)c6)[nH]5)cc4)ccc3c2)[nH]1)C(C)C` (stereo partly shown) [Example 185]: the EC50 is 1 to 44 nM in assay [1] (RLuc reporter), 0.008 nM in assay [2], 0.001 to 0.999 nM in assay [3] (RLuc reporter) and 0.001 to 0.99 nM in assay [4] (setting [5]).
Take `COC(=O)N[C@H](C(=O)N1CCC[C@H]1c1ncc(-c2ccc(-c3ccc4cc(-c5cnc([C@@H]6CCCN6C(=O)[C@@H](NC(=O)OC)C(C)C)[nH]5)ccc4c3)cc2)[nH]1)c1cccnc1` [Example 160]: the EC50 was 0.001 to 0.999 nM in assay [1] (RLuc reporter), 0.017 nM in assay [2], 0.001 to 0.999 nM in assay [3] (RLuc reporter) and 0.001 to 0.99 nM in assay [4] (setting [5]).
Consider `COC(=O)N[C@H](C(=O)N1CCC[C@H]1c1ncc(-c2ccc(-c3ccc4cc(-c5cnc([C@@H]6CCCN6C(=O)C(c6ccccc6)N6CCOCC6)[nH]5)ccc4c3)cc2)[nH]1)C(C)C` (stereo partly shown) [Example 120], for which the EC50 in assay [1] (RLuc reporter) is 0.001 to 0.999 nM; in assay [2], 0.014 nM; in assay [3] (RLuc reporter) it was 0.001 to 0.999 nM; in assay [4] (setting [5]), 0.001 to 0.99 nM.
In the case of `COC(=O)N[C@H](C(=O)N1CCC[C@H]1c1ncc(-c2ccc3cc(-c4ccc(-c5cnc([C@@H]6C[C@@H](F)CN6C(=O)[C@H](NC(=O)OC)c6ccccc6)[nH]5)cc4)ccc3c2)[nH]1)C(C)C` [Example 139], the EC50 in assay [1] (RLuc reporter) is 0.001 to 0.999 nM; in assay [2] it was 0.004 nM; in assay [3] (RLuc reporter), 1 to 44 nM; in assay [4] (setting [5]) it was 0.001 to 0.99 nM.
On the same counts, the results for `COC(=O)N[C@@H](CC(F)F)C(=O)N1CCC[C@H]1c1ncc(-c2ccc3cc(-c4ccc(-c5cnc([C@@H]6CCCN6C(=O)[C@H](NC(=O)OC)c6ccccc6)[nH]5)cc4)ccc3c2)[nH]1` [Example 127] are 0.001 to 0.999 nM, 0.006 nM, 0.001 to 0.999 nM and 0.001 to 0.99 nM.
On the same counts, the results for `COC(=O)N[C@H](C(=O)N1CCC[C@H]1c1nc2ccc(-c3ccc(-c4ccc5c(c4)CCc4nc([C@@H]6CCCN6C(=O)[C@H](NC(=O)OC)c6ccccc6)[nH]c4-5)cc3)cc2[nH]1)C(C)C` [Example 166] are 1 to 44 nM, 0.018 nM, 0.001 to 0.999 nM and 0.001 to 0.99 nM.
On the same counts, the results for `COC(=O)N[C@H](C(=O)N1CCC[C@H]1c1ncc(-c2ccc3cc(-c4ccc5c(c4)OCc4nc([C@@H]6CCCN6C(=O)[C@H](NC(=O)OC)c6ccccc6)[nH]c4-5)ccc3c2)[nH]1)C(C)C` [Example 172] are 0.001 to 0.999 nM, 0.011 nM, 0.001 to 0.999 nM and 0.001 to 0.99 nM.
Regarding `CCN[C@@H](C(=O)N1CCC[C@H]1c1nc(-c2ccc(-c3ccc4cc(-c5c[nH]c([C@@H]6CCCN6C(=O)[C@@H](NC(=O)OC)C(C)C)n5)ccc4c3)cc2)c[nH]1)c1ccccc1` [Example 165], the EC50 in assay [1] (RLuc reporter) was 0.001 to 0.999 nM; in assay [2] it was 0.009 nM; in assay [3] (RLuc reporter) it was 0.001 to 0.999 nM; in assay [4] (setting [5]) it was 0.001 to 0.99 nM.
`COC(=O)NC(C(=O)N1CCC[C@H]1c1ncc(-c2ccc3cc(-c4ccc(-c5cnc([C@@H]6CCCN6C(=O)[C@@H](NC(=O)OC)C(C)C)[nH]5)cc4)ccc3c2)[nH]1)c1ccc(OC(F)(F)F)cc1` (stereo partly shown) [Example 111]: the EC50 in assay [1] (RLuc reporter) was 1 to 44 nM; in assay [2] it was 0.16 nM; in assay [3] (RLuc reporter), > 44 nM; in assay [4] (setting [5]) it was > 5 nM.
